Usually pIC50 stands for the IC50 on a negative log10 scale, so that one unit is a factor of ten.

The text below walks through data of patent publication US5559153A, “Urea-substituted benzoylguanidines, process for their preparation, their use as pharmaceutical or diagnostic, and pharmaceutical containing them” (priority 1993, dated 1996).

pIC50: −log10 of the molar value. Where a name gives a salt, the structure may show the parent alone.

Data set [1] concerns the target T1, Na^+ /H^+ exchanger of rabbit erythrocytes (Oryctolagus cuniculus, UniProt P23791).
T1 construct: Na^+ influx into the erythrocytes via Na^+ /H^+ exchange; endogenous in cells; host or cells: intact erythrocytes from blood of cholesterol-fed New Zealand White rabbits (Ivanovas)
Description: Inhibition of the Na^+ /H^+ exchanger of rabbit erythrocytes (Na^+ influx by flame photometry). In kind it is cell-based, rabbit (New Zealand White). The settings on record: pH 7.4, 37° C., Na^+ influx in hyperosmolar salt/sucrose medium. An excerpt:
Inhibition of the Na^+ /H^+ exchanger of rabbit erythrocytes:
New Zealand White rabbits (Ivanovas) received a standard diet containing 2% cholesterol for six weeks in order to activate the Na^+ /H^+ exchange and thus to be able to determine, by flame photometry, the Na^+ influx into the erythrocytes via Na^+ /H^+ exchange. The blood was removed from the aural arteries and rendered incoagulable using 25 IE/ml of potassium heparin. A part of each sample was used for the duplicate determination of the hematocrit by means of centrifugation. Aliquots of in each case 100 μl were used for measuring the initial Na^+ content of the erythrocytes.
In order to determine the amiloride-sensitive sodium influx, 100 μl of each blood sample were in each case incubated, at pH 7.4 and 37° C., in 5 ml of a hyperosmolar salt/sucrose medium (mmol/l: 140 NaCl, 3 KCl, 150 sucrose, 0.1 ouabain, 20 tris(hydroxymethyl)aminomethane). The erythrocytes were then washed three times with ice-cold MgCl2 /ouabain solution (mmol/l: 112 MgCl2, 0.1 ouabain) and hemolyzed in 2.0 ml of distilled water. The intracellular sodium content was determined by flame photometry.
The net influx of Na^+ was calculated from the difference between the initial sodium values and the sodium content of the erythrocytes following incubation. The amiloride-inhibitable sodium influx resulted from the difference in the sodium content of the erythrocytes following incubation with and without amiloride 3×10^-4 mol/l. This method was also employed in the case of the compounds according to the invention.

The subject of another data set is cardiac arrhythmias. The settings on record: in vivo; cited from earlier work.
For data set [2], the system named is artificially induced ventricular fibrillation, rat hearts. Particulars: isolated rat hearts; cited from earlier work.

T1 sequence (P23791 whole entry): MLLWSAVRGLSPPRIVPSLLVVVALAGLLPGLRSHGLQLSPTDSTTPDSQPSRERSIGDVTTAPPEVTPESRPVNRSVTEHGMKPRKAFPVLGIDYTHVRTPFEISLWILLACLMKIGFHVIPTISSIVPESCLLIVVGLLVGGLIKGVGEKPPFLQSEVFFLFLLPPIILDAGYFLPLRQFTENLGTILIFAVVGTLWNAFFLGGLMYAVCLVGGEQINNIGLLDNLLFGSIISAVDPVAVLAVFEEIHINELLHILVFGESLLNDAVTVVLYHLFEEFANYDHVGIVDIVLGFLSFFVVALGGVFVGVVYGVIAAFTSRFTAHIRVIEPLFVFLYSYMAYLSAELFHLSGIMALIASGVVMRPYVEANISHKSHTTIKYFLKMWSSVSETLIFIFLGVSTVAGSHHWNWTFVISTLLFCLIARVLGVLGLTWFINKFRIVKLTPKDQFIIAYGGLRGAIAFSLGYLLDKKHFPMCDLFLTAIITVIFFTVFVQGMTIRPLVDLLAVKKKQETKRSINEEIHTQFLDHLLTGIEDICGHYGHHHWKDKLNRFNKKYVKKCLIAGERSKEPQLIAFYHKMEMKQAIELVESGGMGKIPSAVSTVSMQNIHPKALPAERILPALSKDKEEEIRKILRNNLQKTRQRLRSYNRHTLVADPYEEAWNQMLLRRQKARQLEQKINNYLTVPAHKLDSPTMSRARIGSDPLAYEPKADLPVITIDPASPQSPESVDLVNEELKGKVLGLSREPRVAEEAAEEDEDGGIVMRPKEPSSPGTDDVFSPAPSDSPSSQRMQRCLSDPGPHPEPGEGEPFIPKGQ

Consider `N=C(N)NC(=O)c1cc(Cl)ccc1NC(=O)N1CCCCC1` [Example 1, 5-Chloro-2-(piperidinocarbonylamino)benzoylguanidine], for which the pIC50 in data set [1] is 5.70 to 6.00. Take `CN(C)C(=O)Nc1ccc(Cl)cc1C(=O)NC(=N)N` [Example 3, 5-Chloro-2-(dimethylaminocarbonylamino)benzoylguanidine hydrochloride]: the negative-log IC50 (pIC50) in data set [1] is 5.52. Take `CC(C)(C)NC(=O)Nc1ccc(Cl)cc1C(=O)NC(=N)N` [Example 7, 5-Chloro-2-(tert-butylaminocarbonylamino)benzoylguanidine hydrochloride]: the negative-log IC50 (pIC50) in data set [1] is 5.10 to 5.52. Same read-out and setting: as for `CCNC(=S)Nc1cc(C(=O)NC(=N)N)ccc1Cl` [Example 17, 4-Chloro-3-(ethylaminothiocarbonylamino)benzoylguanidine hydrochloride], the figure is 5.30 to 5.52; as for `CCCNC(=O)Nc1c(Cl)cc(C(=O)NC(=N)N)cc1Cl` [Example 20, 3,5-Dichloro-4-(n-propylaminocarbonylamino)benzoylguanidine hydrochloride], 5.30 to 5.70; as for `N=C(N)NC(=O)c1cc(Cl)c(NC(=O)Nc2ccccc2)c(Cl)c1` [Example 21, 3,5-Dichloro-4-(phenylaminocarbonylamino)benzoylguanidine hydrochloride], 6.00. As to `N=C(N)NC(=O)c1nc(Cl)c(N)nc1N` [amiloride], in the data set with cardiac arrhythmias, the antiarrhythmic effect entry is “only weakly expressed”; the “side effects (hypotensive and saluretic)” value was “hypotensive and saluretic effects”. For the same compound, the “suppression of artificially induced ventricular fibrillation” value in data set [2] is “completely suppress artificially induced ventricular fibrillation”. Consider `CCN(c1nc(N)c(C(=O)NC(=N)N)nc1Cl)C(C)C` [ethylisopropylamiloride], for which, in data set [2], the “suppression of artificially induced ventricular fibrillation” value is listed as “even more potent than amiloride”.
